As usually defined, the pKa is the pH at which an ionisable group is half protonated.

One data set can be described thus: Approximate pKa value of compound was determined.
Details: not given
It counts as physicochemical.
On to `CC/C(=C(\c1ccccc1)c1ccc(OCCn2cccc2)cc1)c1ccccc1`, for which the “Approx. pKa” value is given as -3.8.

The same data set, now with this note: read-out: Approx. pKa.
`CC/C(=C(\c1ccccc1)c1ccc(OCCCN2CCCC2)cc1)c1ccccc1`: the pKa turned out to be 11.3.
Consider `CC/C(=C(\c1ccccc1)c1ccc(OCCN(C)C)cc1)c1ccccc1` [TAMOXIFEN], for which the pKa amounted to 10.8.
Take `CC/C(=C(\c1ccccc1)c1ccc(OCCN=C(N)N)cc1)c1ccccc1`: the pKa was 13.7.
On the same count and under the same terms, for `CC/C(=C(\c1ccccc1)c1ccc(OCCN2CCOCC2)cc1)c1ccccc1` the value was 8.7; for `CC/C(=C(\c1ccccc1)c1ccc(OCCN2CCN(C)CC2)cc1)c1ccccc1`, 9.8.
For `CC/C(=C(\c1ccccc1)c1ccc(OCCN2CCCC2)cc1)c1ccccc1`, the pKa came out at 11.3.
Regarding `CC/C(=C(\c1ccccc1)c1ccc(OCCN2CCCCC2)cc1)c1ccccc1`, the pKa amounted to 11.2.
Same read-out and setting: for `CC/C(=C(\c1ccccc1)c1ccc(OCCN(CC)CC)cc1)c1ccccc1` the value was 10.9.

The values above are taken from ChEMBL document CHEMBL1122204 (J Med Chem, 1982).
